Counter-ions that a name gives are not always drawn.

The IC50 is the point on the concentration scale where inhibition reaches its midpoint. The low end stands for greater potency in that assay, the high end for weaker potency in that assay. As usually defined, the Ki is a measure of affinity in units of concentration, obtained from inhibition or displacement. A lower Ki goes with a stronger hold on the target.

The target in the first assay is T1, N-formyl peptide receptor 2 (Homo sapiens, UniProt P25090).
T1 sequence (P25090 whole entry): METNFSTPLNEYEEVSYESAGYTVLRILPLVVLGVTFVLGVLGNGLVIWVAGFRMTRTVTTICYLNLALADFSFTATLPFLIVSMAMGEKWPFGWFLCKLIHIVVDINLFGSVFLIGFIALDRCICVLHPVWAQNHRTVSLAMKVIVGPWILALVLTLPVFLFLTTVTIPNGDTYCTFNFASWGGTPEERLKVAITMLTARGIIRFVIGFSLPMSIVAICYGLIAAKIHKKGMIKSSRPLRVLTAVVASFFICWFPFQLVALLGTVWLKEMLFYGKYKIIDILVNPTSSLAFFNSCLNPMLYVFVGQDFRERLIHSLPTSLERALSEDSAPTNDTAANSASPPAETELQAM
The experiment in a line: concentration-dependent FPRL1 ligand displacement – cell-based, FPR counter-screen, fluorescent ligand, dose response (AID 520).
Details: not given
Background: A counterscreen serves to expose hits that act by an unwanted route or on another target.
As to `COc1ccc(C2C(C(=O)c3ccco3)C(=O)C(=O)N2Cc2cccnc2)cc1OC` (centres undefined) [2-(3,4-dimethoxyphenyl)-3-(furan-2-carbonyl)-4-hydroxy-1-(pyridin-3-ylmethyl)-2H-pyrrol-5-one], the IC50 was > 66.7 µM and the Ki is > 40.3 µM. On to `O=C1C(=O)N(Cc2ccccc2)C(c2ccco2)C1C(=O)c1ccco1` (centres undefined) [1-Benzyl-4-(furan-2-carbonyl)-5-furan-2-yl-3-hydroxy-1,5-dihydro-pyrrol-2-one], for which the IC50 is > 66.7 µM and the Ki was > 40.3 µM. On to `COc1ccc(-c2cn3cccnc3n2)cc1NC(=O)C1CCCC1` [MLS000045945], for which the IC50 was > 66.7 µM.

Regarding `CC(C)OC(=O)c1nnn(-c2nonc2N)c1CN1CCc2ccccc2C1` [1-(4-amino-1,2,5-oxadiazol-3-yl)-5-(3,4-dihydro-1H-isoquinolin-2-ylmethyl)-4-triazolecarboxylic acid propan-2-yl ester], the IC50 was > 66.7 µM. Turning to `COc1ccc(C(=O)C2C(=O)C(=O)N(c3nc(C)c(C)s3)C2c2ccco2)cc1` (centres undefined) [(4Z)-1-(4,5-dimethyl-1,3-thiazol-2-yl)-5-(furan-2-yl)-4-[(4-methoxyphenyl)-oxidanyl-methylidene]pyrrolidine-2,3-dione], the IC50 was > 66.7 µM and the Ki is > 40.3 µM.

Take `COCCN1C(=O)C(=O)C(C(=O)c2ccco2)C1c1cccc(Oc2ccccc2)c1` (centres undefined) [3-(furan-2-carbonyl)-4-hydroxy-1-(2-methoxyethyl)-2-(3-phenoxyphenyl)-2H-pyrrol-5-one]: the IC50 was > 66.7 µM and the Ki was > 40.3 µM.

For the compound `COc1ccc(CC(=O)Nc2ccc(-c3nnc(-c4ccc(C)cc4)o3)cc2)cc1` [2-(4-methoxyphenyl)-N-[4-[5-(4-methylphenyl)-1,3,4-oxadiazol-2-yl]phenyl]acetamide], the IC50 is > 66.7 µM. As to `CCCCc1c(O)n(-c2ccccc2)n(-c2ccccc2)c1=O` [3,5-Dioxo-1,2-diphenyl-4-n-butylpyrazolidine], the IC50 is > 66.7 µM and the Ki is > 40.3 µM.

Take `Cc1[nH]n2c(=O)c3c(nc2c1-c1cccc2ccccc12)CCC3` [MLS000530451]: the IC50 is > 66.7 µM. Take `Cc1nc2c(C)cccn2c1C(=O)C1C(=O)C(=O)N(CCN2CCOCC2)C1c1cccs1` (centres undefined) [(4E)-4-[(2,8-dimethyl-3-imidazo[1,2-a]pyridinyl)-hydroxymethylidene]-1-[2-(4-morpholinyl)ethyl]-5-thiophen-2-ylpyrrolidine-2,3-dione]: the IC50 is > 66.7 µM and the Ki was > 40.3 µM.

Take `CC(C)OC(=O)c1cc(NC(=O)C2C3CCC(O3)C2C(=O)O)cc(C(=O)OC(C)C)c1` (centres undefined): the IC50 was > 66.7 µM. As to `O=C1C(=O)N(c2ncccn2)C(c2ccc(Cl)c(Cl)c2)C1C(=O)c1ccco1` (centres undefined) [2-(3,4-dichlorophenyl)-3-(furan-2-carbonyl)-4-hydroxy-1-pyrimidin-2-yl-2H-pyrrol-5-one], the IC50 was > 66.7 µM and the Ki is > 40.3 µM. For `CCCCn1c(NC(C)=O)c(C#N)c2nc3ccccc3nc21` [MLS000079917], the IC50 is > 66.7 µM. Same read-out and setting: for `CCOC(=O)c1c(NC(=O)C2C3CCC(O3)C2C(=O)O)sc(C)c1-c1ccc(C)cc1` (centres undefined) [2-[[[3-ethoxycarbonyl-5-methyl-4-(4-methylphenyl)-2-thiophenyl]amino]-oxomethyl]-7-oxabicyclo[2.2.1]heptane-3-carboxylic acid] the value was > 66.7 µM. Turning to `COc1cccc2cc(C(=O)C3C(=O)C(=O)N(Cc4ccco4)C3c3cccnc3)oc12` (centres undefined) [1-(2-furanylmethyl)-4-hydroxy-3-[(7-methoxy-2-benzofuranyl)-oxomethyl]-2-(3-pyridinyl)-2H-pyrrol-5-one], the IC50 was > 66.7 µM and the Ki was > 40.3 µM.

Take `O=C1C(=O)N(CCOCCO)C(c2cccs2)C1C(=O)c1cccs1` (centres undefined) [1-[2-(2-hydroxyethyloxy)ethyl]-4-oxidanyl-2-thiophen-2-yl-3-thiophen-2-ylcarbonyl-2H-pyrrol-5-one]: the IC50 was > 66.7 µM and the Ki is > 40.3 µM. With `COC(=O)c1ccc(C2C(C(=O)c3ccc(OC)cc3)C(=O)C(=O)N2Cc2ccco2)cc1` (centres undefined) [4-[(3Z)-1-(2-furanylmethyl)-3-[hydroxy-(4-methoxyphenyl)methylidene]-4,5-dioxo-2-pyrrolidinyl]benzoic acid methyl ester], the IC50 is > 66.7 µM and the Ki was > 40.3 µM. In the case of `COc1ccc(OC)c(NC(=O)C2C3CCC(C3=C(C)C)C2C(=O)O)c1` (centres undefined) [MLS000110216], the IC50 was > 66.7 µM. Take `COC(=O)Cc1n[nH]c2c1C(C1C=CCCC1)C(C#N)C(=N)O2` (centres undefined) [2-[6-amino-5-cyano-4-(1-cyclohex-2-enyl)-2,4-dihydropyrano[2,3-c]pyrazol-3-yl]acetic acid methyl ester]: the IC50 was > 66.7 µM and the Ki is > 40.3 µM. On to `Nc1ccc(Nc2ccccc2N)cc1` [(2-aminophenyl)-(4-aminophenyl)amine], for which the IC50 turned out to be 15 µM. Same read-out and setting: for `CCC(CC)C(=O)Nc1c2cnn(-c3ccccc3)c2nc(=O)n1-c1ccccc1` [2-ethyl-N-(6-keto-1,5-diphenyl-pyrazolo[3,4-d]pyrimidin-4-yl)butyramide] the value was > 66.7 µM.

On to `Cc1ccc(C2C(C(=O)c3cnn(-c4ccccc4)c3C)C(=O)C(=O)N2CCN2CCOCC2)o1` (centres undefined) [(4Z)-4-[hydroxy-(5-methyl-1-phenyl-4-pyrazolyl)methylidene]-5-(5-methyl-2-furanyl)-1-[2-(4-morpholinyl)ethyl]pyrrolidine-2,3-dione], for which the IC50 was > 66.7 µM and the Ki was > 40.3 µM.

Consider `CCSc1nnc(NC(=O)CSc2nnc(Cc3cccn3C)n2CCc2ccccc2)s1` [MLS000092939], for which the IC50 was > 66.7 µM. With `CCOC(=O)Cc1cc(=O)n2[nH]c(C)c(-c3ccc(OC)cc3)c2n1`, the IC50 was > 66.7 µM. Same read-out and setting: for `COc1ccc(NC(=O)C(c2ccc(C)cc2)N(C)C(=O)c2cnccn2)cc1` (centres undefined) [MLS000044155] the value was > 66.7 µM; for `Cc1nn(-c2nc3ccccc3s2)c(C)c1Oc1ccccc1O` [2-[1-(1,3-benzothiazol-2-yl)-3,5-dimethyl-pyrazol-4-yl]oxyphenol], > 66.7 µM. For the compound `Cc1ccsc1C1C2C(=O)CC(C)(C)CC2=Nc2ncnn21` (centres undefined) [6,6-dimethyl-9-(3-methyl-2-thienyl)-1,5,7,9-tetrahydro-[1,2,4]triazolo[5,1-b]quinazolin-8-one], the IC50 was > 66.7 µM and the Ki is > 40.3 µM. With `COc1cc(C2C(C(=O)c3cccs3)C(=O)C(=O)N2Cc2ccco2)cc(OC)c1OC` (centres undefined) [1-(2-furanylmethyl)-4-hydroxy-3-[oxo(thiophen-2-yl)methyl]-2-(3,4,5-trimethoxyphenyl)-2H-pyrrol-5-one], the IC50 was > 66.7 µM and the Ki was > 40.3 µM.

As for `CCCS(=O)(=O)N1CCCC(C(=O)N2CCC(Cc3ccccc3)CC2)C1` (centres undefined) [(4-benzylpiperidin-1-yl)-(1-propylsulfonylpiperidin-3-yl)methanone], the IC50 is > 66.7 µM. As for `Cc1c(C)c2cc(Cl)c(O)c(CN3CCCCC3)c2oc1=O` [6-chloranyl-3,4-dimethyl-7-oxidanyl-8-(piperidin-1-ylmethyl)chromen-2-one], the IC50 was > 66.7 µM. `COc1ccc(C)cc1NC(=O)C1CCCCC1C(=O)O` (centres undefined) [2-[(2-methoxy-5-methyl-phenyl)carbamoyl]cyclohexane-1-carboxylic acid]: the IC50 is > 66.7 µM. With `CCOC(=O)Cc1cc(=O)n2[nH]c(C)c(-c3ccc(Cl)cc3)c2n1` [ethyl 2-[3-(4-chlorophenyl)-2-methyl-7-oxo-1H-pyrazolo[1,5-a]pyrimidin-5-yl]acetate], the IC50 was > 66.7 µM. As for `CCCOc1ccc2c(=O)c(N3C(=O)c4ccccc4C3=O)c(C)oc2c1` [2-(2-methyl-4-oxidanylidene-7-propoxy-chromen-3-yl)isoindole-1,3-dione], the IC50 is > 66.7 µM.

Consider `COC(=O)C1=[N+]([O-])OC(C(=O)OC)C1c1c[nH]c2ccccc12` (centres undefined) [MLS000090094], for which the IC50 is > 66.7 µM. Still for that read-out and setting: for `O=C(O)CCCNc1cc(N2CCC3(CC2)OCCO3)c2noc3c2c1C(=O)c1ccccc1-3` [4-{[3-(1,4-dioxa-8-azaspiro[4.5]dec-8-yl)-6-oxo-6H-anthra[1,9-cd]isoxazol-5-yl]amino}butanoic acid] the value was 10.9 µM. For the compound `CCOc1ccc(C(=O)C2C(=O)C(=O)N(c3nc(C)c(C)s3)C2c2ccco2)cc1` (centres undefined) [(4Z)-1-(4,5-dimethyl-1,3-thiazol-2-yl)-4-[(4-ethoxyphenyl)-hydroxymethylidene]-5-(furan-2-yl)pyrrolidine-2,3-dione], the IC50 is > 66.7 µM and the Ki is > 40.3 µM. In the case of `Cc1ccc(C2c3c([nH]c(=S)[nH]c3=O)N=C3CC(C)(C)CC(=O)C32)cc1` (centres undefined) [8,8-dimethyl-5-(4-methylphenyl)-2-sulfanylidene-5,7,9,10-tetrahydro-1H-pyrimido[4,5-b]quinoline-4,6-dione], the IC50 was > 66.7 µM and the Ki is > 40.3 µM. On to `O=C(NCC1CCCO1)c1ccc(NC(=O)C2CCCCC2C(=O)O)cc1` (centres undefined) [2-[[4-(oxolan-2-ylmethylcarbamoyl)phenyl]carbamoyl]cyclohexane-1-carboxylic acid], for which the IC50 was > 66.7 µM. On to `CCN(CCCc1ccccc1)CCCc1ccccc1` [ALVERINE CITRATE SALT], for which the IC50 is > 66.7 µM. On to `C=CCOc1ccc(C2C(C(=O)c3cccs3)C(=O)C(=O)N2c2nnc(C)s2)cc1` (centres undefined) [1-(5-methyl-1,3,4-thiadiazol-2-yl)-4-oxidanyl-2-(4-prop-2-enoxyphenyl)-3-thiophen-2-ylcarbonyl-2H-pyrrol-5-one], for which the IC50 was > 66.7 µM and the Ki is > 40.3 µM. `Cc1c(CNCc2cccs2)c(C(=O)O)c(C)n1Cc1ccccc1` [1-benzyl-2,5-dimethyl-4-[(2-thenylamino)methyl]pyrrole-3-carboxylic acid]: the 50% inhibitory concentration (IC50) is > 66.7 µM.

Still in this assay, the particulars now being: inactive by the depositor's call.
Take `CCCC(=O)Nc1cc(-c2cn3cccnc3n2)ccc1OC` [MLS000045942]: the IC50 turned out to be 22.8 µM.

The values are drawn from BindingDB's records for doi:10.7270/Q2DF6PMF (Nmmlsc, 2007).
